Measurements taken from patent publication US20140275259A1, “Direct Lipid to Membrane Drug Delivery” (APPLIED BIORESEARCH, INC., priority 2013, published 2014).
Read-outs that look alike come from different tables or passages of the source.

Tests used:
[1] = aqueous composition containing MBK, pH 7.0 and pH 9.6, 5 hours
Experimental: Cells in the digestive track, such as CACO-2 cells are typically used to model absorption in the small intestine. CACO-2 cells, developed by the Sloan-Kettering Institute from human epithelial colorectal adenocarcinoma cells, are widely used to predict drug absorption. […] permeability assay (PAMPA) uses an artificial cell membrane to model drug permeability. In either test, the drug is dissolved in an aqueous solution mimicking the target gastric fluid. The fluid is contacted with the membrane, and the passage of the drug through the membrane over a period of time is used to assess permeability.
PAMPA measures how quickly the drug can exit a water-solvated environment and pass through a cell membrane. Since most drugs are hydrophobic, it is expected that there will be significant absorption by the cells lining the digestive tract.

[2] = rat; for Halflife / Tmax: mean
in vivo = conditions: rat
[3] = dogs, rectal, aqueous solution; cited from earlier work
[4] = Group B, intravenous, 1.37 mg/kg

O=C([O-])CN(CCN(CC(=O)[O-])CC(=O)[O-])CC(=O)[O-].[Ca+2].[Na+].[Na+] [CaNa2EDTA, calcium disodium ethylenediaminetetraacetate]
passage of drug through the artificial cell membrane (PAMPA) [1]: completely negative | Halflife [2, 4]: 1.50 h | Tmax [2, 4]: 4.98 min | Tmax ([2]; Group C, rectal suppository, 213.5 mg/kg): 25 min | Halflife ([2]; Group C, rectal suppository, 213.5 mg/kg, terminal elimination phase not observed, calculation interpolated): 8.20^1 Hour | drug absorbed within eight hours ([2]; suppository with MBK as the excipient): over 36.3% | bioavailability at 8 hours (in vivo): 36.3% | AUC (in vivo; 213.5 mg/kg): 106000 ng·h/mL | AUC(0-inf) (in vivo; 213.5 mg/kg): 307 µg·h/mL | Cmax (in vivo; 213.5 mg/kg): 30600 ng/mL | AUC (in vivo; iv, 1.37 mg/kg): 1860 ng·h/mL | AUC(0-inf) (in vivo; iv, 1.37 mg/kg): 1.91 µg·h/mL | Cmax (in vivo; iv, 1.37 mg/kg): 2070 ng/mL

O=C(O)CN(CCN(CC(=O)O)CC(=O)O)CC(=O)O [EDTA]
absorption [3]: ~13%
